US8637683B2, “Macrocyclic lactone derivatives for the treatment of cancer” (Piramal Enterprises Limited, priority 2009, dated 2014)
Converted amounts (≈) assume the structure as drawn. “And” between values parts separate entries of the source, which are not always exact repeats. Equal values may be shown once. Read-outs that look alike come from different tables or passages of the source.

Columns and labels:
HCT 116 = assay: Monolayer assay (modified propidium iodide), HCT 116; type: cell-based, human; settings: HCT 116, Colon, 4 days of treatment
Description: (§1) Oncotest GmbH, Germany's proprietary tumor cell line panel comprises 40 cell lines. These cell lines were derived from 15 different tumor histotypes, each represented by 1 to 6 different cell lines. Cell lines were established from cancer of the bladder (3), colon (4), head and neck (1), lung (6), breast (3), pancreas (3), prostate (4), ovary (2), kidney (3), liver (1), stomach (1) and the uteri body (1), as well as from melanoma (3), sarcoma (2) and pleuramesothelioma (3). Out of these 40 cell lines, 24 cell lines were established at Oncotest, from patient-derived tumor xenografts. […]
(§2) Stock solutions of the test compounds (330 μg/mL in DMSO) were prepared and stored in small aliquots (200 μL) at −20° C. […] Each concentration was evaluated in triplicate. […]
(§3) Cells were plated in 96-well flat-bottom microtiter plates at a cell density of 4,000 to 10,000 cells/well. […] To measure the viable cell number, the remaining adherent cells were killed and permeabilized by repeated freezing and thawing and PI fluorescence was measured using the Cytofluor 4000 microplate reader (excitation λ=530 nm, emission λ=620 nm), which was a measure for the number of cells which survived treatment. […] IC-values were calculated based on the principle of linear two-point curve fit. […]

GXF 251 L = assay: Monolayer assay (modified propidium iodide), GXF 251 L; type: cell-based, human; settings: Gastric, 4 days of treatment
Description: as §1, §2, §3

MEXF 1341L = assay: Monolayer assay (modified propidium iodide), MEXF 1341L; type: cell-based, human; settings: Melanoma, 4 days of treatment
Description: as §1, §2, §3

SACS2 = assay: Monolayer assay (modified propidium iodide), SACS2; type: cell-based, human; settings: SACS2, Sarcoma, 4 days of treatment
Description: as §1, §2, §3

OVXF 899L = assay: Monolayer assay (modified propidium iodide), OVXF 899L; type: cell-based, human; settings: Ovarian, 4 days of treatment
Description: as §1, §2, §3

PAXF 546L = assay: Monolayer assay (modified propidium iodide), PAXF 546L; type: cell-based, human; settings: Pancreas, 4 days of treatment
Description: as §1, §2, §3

UXF 1138L = assay: Monolayer assay (modified propidium iodide), UXF 1138L; type: cell-based, human; settings: Uterus, 4 days of treatment
Description: as §1, §2, §3

OVCAR3 = assay: Monolayer assay (modified propidium iodide), OVCAR3; type: cell-based, human; settings: OVCAR3, Ovarian, 4 days of treatment
Description: as §1, §2, §3

[1] = test system: panel of 40 human tumor cell lines; assay: Monolayer assay, panel of 40 human tumor cell lines; type: cell-based
Description: Oncotest GmbH, Germany's proprietary tumor cell line panel comprises 40 cell lines. These cell lines were derived from 15 different tumor histotypes, each represented by 1 to 6 different cell lines. Cell lines were established from cancer of the bladder (3), colon (4), head and neck (1), lung (6), breast (3), pancreas (3), prostate (4), ovary (2), kidney (3), liver (1), stomach (1) and the uteri body (1), as well as from melanoma (3), sarcoma (2) and pleuramesothelioma (3). Out of these 40 cell lines, 24 cell lines were established at Oncotest, from patient-derived tumor xenografts. The other 16 cell lines were either provided by the NCI (Bethesda; MD, USA) or were purchased from ATCC (Rockville, Md., USA) or DSMZ (Braunschweig, Germany).
Cell lines were routinely passaged once or twice weekly and maintained in culture for upto 20 passages. All cells were grown at 37° C. in a humidified atmosphere with 5% CO2 in RPMI 1640 medium supplemented with 10% (v/v) fetal calf serum (FCS) and 0.1 mg/mL gentamicin (medium and all other components from PAA, Cölbe, Germany). Authenticity of all cell lines was proven at the DSMZ by STR (short tandem repeat) analysis, a PCR based DNA-fingerprinting methodology.
Stock solutions of the test compounds (330 μg/mL in DMSO) were prepared and stored in small aliquots (200 μL) at −20° C. An aliquot of the stock solution was thawed on the day of use and stored at room temperature prior to and during dosing. The subsequent dilutions were done with complete RPMI 1640 cell culture medium as follows: the stock solution was diluted 1:22 followed by serial dilutions finally resulting in a (compared to the test concentration) 15-fold higher concentration. For the final dilution step (1:15), 10 μL/well of the respective compound solution was directly added to 140 μL/well culture medium. Test compounds were tested at […]. Each concentration was evaluated in triplicate.
A modified propidium iodide assay was used to assess the effect of the test compounds on the growth of the human tumor cell lines and was designed as in reference, Anti-cancer Drugs, 6, 522-532, (1995), the disclosure of which is incorporated by reference for the teaching of the assay.
Cells were plated in 96-well flat-bottom microtiter plates at a cell density of 4,000 to 10,000 cells/well. After a 24 h recovery period to allow the cells to resume exponential growth, the test compounds were applied at five concentrations in log increments in triplicates in two independent runs. After 4 days of treatment, the medium with/without test compounds including all floating (i.e., dead) cells was aspirated and replaced by 200 μL of an aqueous propidium iodide (PI) solution (7 μg/mL). To measure the viable cell number, the remaining adherent cells were killed and permeabilized by repeated freezing and thawing and PI fluorescence was measured using the Cytofluor 4000 microplate reader (excitation λ=530 nm, emission λ=620 nm), which was a measure for the number of cells which survived treatment. Pharmacological effects on cell proliferation and survival were expressed as Test/Control×100 (% T/C) values, with T and C representing the fluorescence read-outs for wells with and without test compound, respectively, i.e. T/C represents the ratio of viable cell numbers following incubation of cell line with/without test compound. Based on the T/C values IC50 and IC70 values, being the drug concentration necessary to inhibit cell growth by 50% (T/C=50%) and 70% (T/C=30%), respectively, were determined by plotting compound concentration versus cell viability (T/C). IC-values were calculated based on the principle of linear two-point curve fit. […]

RXF 486L = assay: Monolayer assay (modified propidium iodide), RXF 486L; type: cell-based, human; settings: Renal, 4 days of treatment
Description: as §1, §2, §3

H 460 = assay: Monolayer assay (modified propidium iodide), H 460; type: cell-based, human; settings: H 460, Lung, 4 days of treatment
Description: as §1, §2, §3

LXF 1121L = assay: Monolayer assay (modified propidium iodide), LXF 1121L; type: cell-based, human; settings: Lung, 4 days of treatment
Description: as §1, §2, §3

LXF 289L = assay: Monolayer assay (modified propidium iodide), LXF 289L; type: cell-based, human; settings: Lung, 4 days of treatment
Description: as §1, §2, §3

PXF 1118L = assay: Monolayer assay (modified propidium iodide), PXF 1118L; type: cell-based, human; settings: Pleuramesothelioma, 4 days of treatment
Description: as §1, §2, §3

LXF 629L = assay: Monolayer assay (modified propidium iodide), LXF 629L; type: cell-based, human; settings: Lung, 4 days of treatment
Description: as §1, §2, §3

PXF 1752L = assay: Monolayer assay (modified propidium iodide), PXF 1752L; type: cell-based, human; settings: Pleuramesothelioma, 4 days of treatment
Description: as §1, §2, §3

Molecule `C/C=C/C(O)C(C)/C=C/C(=N\O)C(C)C(O)C(C)C1OC(=O)/C(OC)=C/C(C)=C/C(C)C(O)C(CC)C(O)C(C)C/C(C)=C/C=C/C1OC` (stereo not shown) [Example 7, (3Z,5E,13E,15E)-18-((5Z,6E,10E)-3,9-Dihydroxy-5-(hydroxymino)-4,8-dimethyldodeca-6,10-dien-2-yl)-9-ethyl-8,10-dihydroxy-3,17-dimethoxy-5,7,11,13-tetramethyl oxacyclooctadeca-3,5,13,15-tetraen-2-one] has an IC70 (HCT 116) of 5.0 ng/mL (≈ 7.25 nM), an IC50 (HCT 116; Homo sapiens, 96 h) of 3 ng/mL (≈ 4.35 nM) and an IC70 (GXF 251 L) of 6.0 ng/mL (≈ 8.7 nM). For the same molecule, the IC50 (GXF 251 L; Homo sapiens, 96 h) was 1 ng/mL (≈ 1.45 nM), the IC50 (MEXF 1341L; Homo sapiens, 96 h) was 0.2 ng/mL (≈ 0.29 nM) and the IC70 (MEXF 1341L) was 2.0 ng/mL (≈ 2.9 nM). For the same molecule, the IC50 (SACS2; Homo sapiens, 96 h) was 5 ng/mL (≈ 7.25 nM), the IC70 (SACS2) was greater than 1000 ng/mL and the IC50 (OVXF 899L; Homo sapiens, 96 h) was 8 ng/mL (≈ 11.6 nM). It also gave an IC70 (OVXF 899L) of 31.0 ng/mL (≈ 44.9 nM), an IC50 (PAXF 546L; Homo sapiens, 96 h) of 0.5 ng/mL (≈ 0.725 nM) and an IC70 (PAXF 546L) greater than 1000 ng/mL. The IC50 (UXF 1138L; Homo sapiens, 96 h) was 5 ng/mL (≈ 7.25 nM), the IC70 (UXF 1138L) was 11.0 ng/mL (≈ 15.9 nM) and the IC50 (OVCAR3; Homo sapiens, OVCAR-3, 96 h) was 0.4 ng/mL (≈ 0.58 nM). For the same molecule, the IC70 (OVCAR3) was greater than 1000 ng/mL, the “activity in all cell lines as tested” value ([1]; 40 cell lines) was “concentration-dependent activity” and the “tumor selectivity” value ([1]; 40 cell lines) was “remarkable level of tumor selectivity”. The “Tumor selectivity: number of cell lines among the histotype with individual IC70 <mean IC70” value (from here on “Tumor selectivity: number”) ([1]; Bladder) was 2 out of 3 and 2/3, the “Tumor selectivity: number” value ([1]; Breast (mammary)) was 2/3 and 3/3 and the “Tumor selectivity: number” value ([1]; Colon) was 4/4. For the same molecule, the IC50 ([1]; Homo sapiens, all 40 cell lines, read-out: IC50) was less than 1000 ng/mL, the “Tumor selectivity: number” value ([1]; Lung) was 5/6 and the “Tumor selectivity: number” value ([1]; Melanoma) was 2/3. The “Tumor selectivity: number” value ([1]; Pleurameso) was 1/3, the “Tumor selectivity: number” value ([1]; Prostate) was 2/4 and the IC70 ([1]; all 4 colon cancer cell lines) was no more than 5 ng/mL. The “Mean IC70” value ([1]; mean over panel of 40 human tumor cell lines) was 9.1 ng/mL, the IC50 ([1]; mean over panel of 40 human tumor cell lines, read-out: Mean IC50) was 1.1 ng/mL (≈ 1.59 nM) and the IC50 (RXF 486L; Homo sapiens, 96 h) was 16 ng/mL (≈ 23.2 nM). The IC70 (RXF 486L) was 39.0 ng/mL (≈ 56.5 nM), the IC70 (H 460) was 2.0 ng/mL (≈ 2.9 nM) and the IC50 (H 460; Homo sapiens, NCI-H460, 96 h) was 0.7 ng/mL (≈ 1.01 nM). For the same molecule, the IC50 (LXF 1121L; Homo sapiens, 96 h) was 1 ng/mL (≈ 1.45 nM), the IC70 (LXF 1121L) was 5.0 ng/mL (≈ 7.25 nM) and the IC50 (LXF 289L; Homo sapiens, 96 h) was 6 ng/mL (≈ 8.7 nM). The IC70 (LXF 289L) was 68.0 ng/mL (≈ 98.6 nM), the IC50 (PXF 1118L; Homo sapiens, 96 h) was 432 ng/mL (≈ 626 nM) and the IC70 (PXF 1118L) was greater than 1000 ng/mL. It also gave an IC50 (LXF 629L; Homo sapiens, 96 h) of 0.1 ng/mL (≈ 0.145 nM), an IC70 (LXF 629L) of 1.0 ng/mL (≈ 1.45 nM) and an IC50 (PXF 1752L; Homo sapiens, 96 h) of 3 ng/mL (≈ 4.35 nM). The IC70 (PXF 1752L) was 22.0 ng/mL (≈ 31.9 nM).
